Assay results as given in patent US20100330098A1, “METHODS TO REGULATE GLUCOSE METABOLISM” (priority 2009, published 2010).
“Also recorded” adds a separate entry of the source.

Assays:
Assay type in all cases: in vivo, mouse
C57Bl/6 and SCID mice = assay: Ad libidum and fasting blood glucose levels in wild-type mice; details: 6 weeks of twice-weekly s.c. VEGF Trap vs human Fc (FIG. 6)
IRS-2 = assay: Western blot of liver extracts: hepatic IRS-2 protein; details: livers from VEGF Trap-treated mice (FIG. 8)
Source text: (§1) FIG. 4 is a Western blot indicating increased hepatic insulin signaling following single intravenous injections of 5×10^8 pfu Ad Flt1 (VEGF inhibition) or Ad Fc (negative control) into adult C57Bl/6 mice. […] IR-β: b-subunit of the IR. * P≦0.05; n=5 animals each.
(§2) FIG. 8 is a digital image of a Western blot analysis.

[1] = tested on: insulin receptor (IR) signaling intermediates Akt, GSK-3β, FOXO1; assay: Western blot of liver extracts: phosphorylation of insulin receptor signaling intermediates; details: livers from VEGF Trap-treated mice (FIG. 8)
Source text: as §1, §2

G6PC and PEPCK = assay: Quantitative PCR of hepatic gluconeogenic gene expression; details: SCID mice, six weeks twice-weekly s.c. 25 mg/kg VEGF Trap vs human Fc (FIG. 9)
C57Bl/6 mice = assay: Euglycemic, hyperinsulinemic clamp analyses; details: adult male C57Bl/6 mice
Source text: Adult male C57Bl/6 mice (n=8 or 9) were used. * P=0.01 ** P=0.0001 for control vs. treatment.

HIF-2α = assay: Immunoblots of hepatic HIF-2α; details: C57Bl/6 mice, 14 days after single injection of 5×10^8 pfu Ad Flt1 vs Ad Fc (FIG. 11)
db/db mice [2] = assay: Ad libidum (fed) and fasting blood glucose levels in db/db mice; details: long-term twice-weekly s.c. 25 mg/kg VEGF Trap vs hFc (FIG. 28)
Source text: FIG. 25 is a graph showing ad libidum and fasting blood glucose levels in mice. * P≦0.05 in the indicated treatment groups compared to control.
FIG. 28 is a graph showing ad libidum blood glucose levels. * P<0.04 between VEGF Trap- and hFc-treated db/db mice at the indicated time points.
FIG. 33 is a graph showing the fed and fasting blood glucose levels in db/db mice.
Db/db model. Db/db or wild-type mice received single intravenous injection of adenoviruses encoding Ad Flt (soluble VEGF receptor), Ad Fc (control antibody Fc fragment), VEGF Trap or control human Fc fragment, with or without adenovirus encoding shRNA against HIF-2α, or scrambled control shRNA. Adenovirus gives preferential and quantitative hepatocyte infection, a robust maneuver for achieving hepatic gene knockdown (Canettieri et al., (2005) Cell Metab. 2: 331; Taniguchi et al., (2005) J. Clin. Invest. 115: 718).
(§3) FIGS. 25-27 illustrate that VEGF inhibition and HIF-2α activation reverse the diabetic phenotype of db/db mice. The data of […] are from 10 week-old female db/db mice injected with 5×10^8 pfu of the indicated viruses.
FIGS. 28-29 illustrate that the chronic administration of VEGF Trap protein improves hepatic glucose tolerance in db/db mice. 10 week-old female db/db and db/+ mice (n=5) were treated with twice-weekly subcutaneous injections of 25 mg/kg VEGF Trap or control hFc. […]

db/db mice [3] = assay: Glucose tolerance test in db/db mice; details: twice-weekly s.c. 25 mg/kg VEGF Trap vs hFc, 0.5 g/kg glucose i.p. (FIGS. 29-30)
Protocol: FIG. 26 is a graph showing the results of glucose tolerance tests. 7 d after adenoviral infection, mice were given 0.5 g/kg glucose intraperitoneally and blood glucose levels were measured.
FIG. 29 is a graph showing the results of a glucose tolerance test in db/db mice. Mice were given 0.5 g/kg glucose intraperitoneally and blood glucose levels were measured. * P<0.03 between treatment groups at the indicated time points. Values are mean±s.e.m.
FIG. 30 is a graph showing the results of a glucose tolerance test in db/db mice. Mice were given 0.5 g/kg glucose intraperitoneally and blood glucose levels were measured. * P<0.03 between treatment groups at the indicated time points. Values are mean±s.e.m.
FIG. 32 is a graph showing the results of a glucose tolerance test in db/db mice. Mice were given 0.5 g/kg glucose intraperitoneally and blood glucose levels were measured. * P<0.02 between treatment groups at the indicated time points. Values are mean±s.e.m.
as §3
FIGS. 28-29 illustrate that the chronic administration of VEGF Trap protein improves hepatic glucose tolerance in db/db mice. […]

db/db mice [4] = assay: Plasma insulin levels by ELISA in db/db mice; details: VEGF Trap vs hFc, ELISA (FIG. 31)
Protocol: FIG. 31 is a graph showing plasma insulin levels as determined by ELISA. * P=0.003 between VEGF Trap- and hFc-treated db/db mice. The hyperinsulinemia of db/db mice is corrected by VEGF Trap treatment.
FIGS. 28-29 illustrate that the chronic administration of VEGF Trap protein improves hepatic glucose tolerance in db/db mice. 10 week-old female db/db and db/+ mice (n=5) were treated with twice-weekly subcutaneous injections of 25 mg/kg VEGF Trap or control hFc.

Substance: VEGF Trap: Ig domain 2 from VEGFR1 fused to Ig domain 3 from VEGFR2, fused to the Fc domain of IgG1 (Regeneron)
- blood glucose levels (C57Bl/6 and SCID mice): lowered
- liver IRS-2 levels (IRS-2): higher levels
- liver phospho-AKT levels [1]: higher levels
- hepatic expression of G6PC and PEPCK (G6PC and PEPCK): significantly reduced
- glucose infusion rate to maintain euglycemia (C57Bl/6 mice; hyperinsulinemic euglycemic clamp (FIG. 7A)): higher glucose infusion rate
- insulin suppression of hepatic glucose production (insulin action in the liver) (C57Bl/6 mice; hyperinsulinemic euglycemic clamp (FIG. 7B)): increased insulin action in the liver
- hepatic HIF-2α stabilization (HIF-2α): increased stabilization
- ad libidum blood glucose levels (hyperglycemia) (db/db mice [2]): sustained correction
- glucose tolerance (GTT) (db/db mice [3]): improved glucose tolerance; also recorded: improves
- plasma insulin levels (hyperinsulinemia) (db/db mice [4]): sustained correction; also recorded: corrected
